Key:
Type in all cases: physicochemical
[1] = Hygroscopicity Test 2 (25° C. and 84% RH; free base, salts and salt mixtures); settings: for Appearance / Water content / Purity: 25° C. and 84% RH, dark; for Purity: HPLC
Description: (§1) Hygroscopicity of Compound 1 or the substance in the form of a salt can be evaluated by putting a sample on a glass weighing dish, storing the dish in a dark place for a given period of time in an open state at a temperature of 25 to 40° C. under a humidification condition of about 75 to 94% relative humidity, and then observing or measuring appearance, purity, water content and the like of Compound 1 or the substance in the form of a salt. Increase of water content before and after storage especially serves as an important hygroscopic index. For example, the evaluation is preferably performed after storage conditions of 25° C. and 84% RH. • High performance liquid chromatography apparatus: LC-10A Series (Shimadzu) or Agilent 1100 series (Agilent Technologies) • Solution concentration: 500 μg/ml • Injection: 10 μl • Detector: Ultraviolet absorptiometer (measurement wavelength: 245 nm) • Column: XBridge Shield RP18 5 μm, internal diameter: 4.6 mm, length: 15 cm (Waters) • Column temperature: Constant temperature around 40° C. • Mobile phase A: 20 mmol/l Sodium phosphate buffer (pH 7.0) • Mobile phase B: Acetonitrile • Liquid feeding program: A concentration gradient was formed by changing the mixing ratio of the mobile phase A and the mobile phase B as shown in Table 1. • Flow rate: 1.0 ml/minute • Water content measurement apparatus: AQ-7 (Hiranuma Sangyo) • Sample amount: 5 mg • Anolyte: Aqualyte RS (Sigma-Aldrich) • Catholyte: Aqualyte CN (Sigma-Aldrich) Compound 1 obtained by a method similar to the method described in Example 1 (two kinds of lots), the monohydrochloride obtained by the method described in Example 3, the dihydrochloride, and mixtures of the monohydrochloride and the dihydrochloride at ratios of 9:1, 8:2, 6:4, 4:6 and 2:8 were weighed on a glass weighing dish in an amount of each 40 mg, and each sample was stored in a dark place at 25° C. and 84% RH for 2 to 4 weeks. After the storage, appearance was evaluated by visual inspection. Further, purity was measured under the conditions of Test Example 7, and water content was measured under the conditions of Test Example 8.

[2] = Measurement of water content (coulometric titration method); settings: as prepared, sample 5 mg
Description: For evaluation of purity of Compound 1 or the substance in the form of a salt, the area percentage method based on HPLC is convenient. For evaluation of water content of Compound 1 or the substance in the form of a salt, the volumetric titration method, the coulometric titration method described in Japanese Pharmacopoeia, General Test Methods, “Water Determination”, the loss on drying test and the like can be used. When sample weight is small, the coulometric titration method can be preferably chosen.

[3] = Thermal stability test (sealed glass vial, dark place, 60° C.); settings: for Appearance / Water content / Purity: 60° C., dark, sealed vial; for Purity: HPLC
Description: Thermal stability of Compound 1 or the substance in the form of a salt can be evaluated by, for example, sealing a sample in a glass vial or the like, storing the vial under a severe temperature condition such as 40 to 80° C. in a dark place for a given period of time, and then observing or measuring appearance, purity, water content and the like of Compound 1 or the substance in the form of a salt. Change of purity before and after storage especially serves as an important index of thermal stability. For example, the evaluation is preferably performed under a storage condition of 60° C. • High performance liquid chromatography apparatus: LC-10A Series (Shimadzu) or Agilent 1100 series (Agilent Technologies) • Solution concentration: 500 μg/ml • Injection: 10 μl • Detector: Ultraviolet absorptiometer (measurement wavelength: 245 nm) • Column: XBridge Shield RP18 5 μm, internal diameter: 4.6 mm, length: 15 cm (Waters) • Column temperature: Constant temperature around 40° C. • Mobile phase A: 20 mmol/l Sodium phosphate buffer (pH 7.0) • Mobile phase B: Acetonitrile • Liquid feeding program: A concentration gradient was formed by changing the mixing ratio of the mobile phase A and the mobile phase B as shown in Table 1. • Flow rate: 1.0 ml/minute • Water content measurement apparatus: AQ-7 (Hiranuma Sangyo) • Sample amount: 5 mg • Anolyte: Aqualyte RS (Sigma-Aldrich) • Catholyte: Aqualyte CN (Sigma-Aldrich) The monohydrochloride obtained by the method described in Example 3, the monohydrobromide obtained by the method described in Example 4, and the dihydrochloride as a control were weighed in a glass vial in an amount of 40 mg each, and the glass vial was sealed. Each sample was stored in a dark place at 60° C. for 2 to 4 weeks, and after the storage, appearance was evaluated by visual inspection. Further, purity was measured under the conditions of Test Example 7, and water content was measured under the conditions of Test Example 8.

[4] = Hygroscopicity Test 1 (open glass weighing dish, dark place, 25° C. and 84% RH); settings: for Appearance / Water content / Purity: 25° C. and 84% RH, dark, open; for Purity: HPLC
Description: as §1, with “(Sigma-Aldrich) The” for “(Sigma-Aldrich) Compound 1 obtained by a method similar to the method described in Example 1 (two kinds of lots), the”, “the monohydrobromide obtained by” for “the dihydrochloride, and mixtures of”, “the method described in Example 4,” for “the monohydrochloride”, “dihydrochloride as a control” for “dihydrochloride at ratios of 9:1, 8:2, 6:4, 4:6 and 2:8”, “of” for “of each”, “40 mg each,” for “40 mg,”

[5] = after storage at 60° C. for 4 weeks
[6] = after storage at 25° C. and 84% RH for 4 weeks

Appearance ([1]; after 2 weeks): White
Water content ([1]; after 2 weeks): 0.1%
Appearance ([1]; before storage): White
Water content ([1]; before storage): 0.0%
Purity ([1]; after 2 weeks): 100.0%
Purity ([1]; before storage): 100.0%
Water content [2]: 0.20%
Appearance ([3]; after 2 weeks): White
Water content ([3]; after 2 weeks): 0.06%
Appearance ([3]; after 4 weeks): White
Water content ([3]; after 4 weeks): 0.08%
Appearance ([3]; before storage): White
Water content ([3]; before storage): 0.20%
Purity ([3]; after 2 weeks): 99.9%
Purity ([3]; after 4 weeks): 99.7%
Purity ([3]; before storage): 99.4%
Thermal stability compared with the dihydrochloride ([3]; Test Example 9, 60° C.): more satisfactory thermal stability
Change of appearance [3, 5]: no change of appearance
Degradation of purity [3, 5]: no degradation of purity
Appearance ([4]; after 2 weeks): White
Water content ([4]; after 2 weeks): 0.23%
Appearance ([4]; after 4 weeks): White
Water content ([4]; after 4 weeks): 0.26%
Appearance ([4]; before storage): White
Water content ([4]; before storage): 0.20%
Purity ([4]; after 2 weeks): 99.8%
Purity ([4]; after 4 weeks): 99.6%
Purity ([4]; before storage): 99.4%
Hygroscopicity compared with the dihydrochloride ([4]; Test Example 10, 25° C. and 84% RH): remarkably lower hygroscopicity
Change of appearance [4, 6]: no change of appearance
Degradation of purity [4, 6]: no degradation of purity
Increase of water content [4, 6]: no substantial increase of water content
Compound: CN[C@H]1CCN(S(=O)(=O)c2cccc3cncc(Cl)c23)C1.Cl [Monohydrochloride, (S)-1-(4-chloro-5-isoquinolinesulfonyl)-3-(methylamino)pyrrolidine monohydrochloride]
Hygroscopicity compared with Compound 1 (free base) and mixtures ([1]; Test Example 11, 25° C. and 84% RH): hygroscopicity lower than any of Compound 1 (free base) and mixtures of the monohydrochloride and the dihydrochloride
